In paper PMC12040169 (PLOS Biology, 2025) one finds viability data, which are given here for 70 compounds.

Usually viability stands for a read-out of living cells in per cent, often relative to untreated cells.

This series in a line: in vitro. Conditions: human, hela cells, % viability.

For `C#CCNC(=O)[C@H]1O[C@H](CCN2CCCCC2)CC[C@@H]1O` [CBK288728], the viability at 28.5 h, 10 µM stood at 101%. `CC(C)NC(=O)[C@H]1CN2CCC1C[C@@H]2Cn1cc(-c2cccc(O)c2)nn1` (stereo partly shown) [CBK288731]: the viability at 28.5 h, 10 µM is 91.7%. As to `CC(C)NC(=O)[C@H]1CN2CCC1C[C@@H]2Cn1cc(C2(O)CCCCC2)nn1` (stereo partly shown) [CBK288732], the viability at 28.5 h, 10 µM is 99.3%. For `COCc1cn(C[C@H]2CC3CCN2C[C@@H]3C(=O)NC(C)C)nn1` (stereo partly shown) [CBK288733] the value was 89.2%. For `O=C([C@H]1CN2CCC1C[C@@H]2Cn1cc(COc2ccccc2)nn1)N1CCOCC1` (stereo partly shown) [CBK288734] the value was 113%; for `CC(C)(C)c1cn(C[C@H]2CC3CCN2C[C@@H]3C(=O)N2CCOCC2)nn1` (stereo partly shown) [CBK288735], 87.8%; for `Cn1nc(C2CCCC2)cc1[C@H]1CN2CC[C@H]1C[C@@H]2CNS(C)(=O)=O` [CBK288742], 91.5%. Take `CC[C@H]1C[N@@]2CC[C@H]1C[C@@H]2CNS(=O)(=O)c1cccc(C#N)c1` [CBK288746]: the viability at 28.5 h, 10 µM is 96.9%.

Turning to `C=C[C@H]1C[N@@]2CC[C@H]1C[C@@H]2CNS(=O)(=O)c1ccc(NC(C)=O)cc1` [CBK288749], the viability at 28.5 h, 10 µM worked out at 98.9%. For `C#C[C@H]1C[N@@]2CC[C@H]1C[C@@H]2CNS(=O)(=O)c1ccc(NC(C)=O)cc1` [CBK288752] the value was 103%. Take `C#C[C@H]1C[N@@]2CC[C@H]1C[C@@H]2CNC(=O)Nc1cccc(C#N)c1` [CBK288754]: the viability at 28.5 h, 10 µM was 97.2%. Consider `COc1ccc(S(=O)(=O)NC[C@H]2C[C@@H]3CC[N@]2C[C@@H]3CN2CCOCC2)cc1` [CBK288761], for which the viability at 28.5 h, 10 µM amounted to 87.7%. As for `N#Cc1cccc(NC(=O)NC[C@H]2C[C@@H]3CC[N@]2C[C@@H]3CN2CCOCC2)c1` [CBK288763], the viability at 28.5 h, 10 µM came out at 108%.

On to `N#Cc1cccc(NC(=O)NC[C@H]2C[C@@H]3CC[N@]2C[C@@H]3CN2CCCCC2)c1` [CBK288765], for which the viability at 28.5 h, 10 µM turned out to be 99.5%. As to `CC(=O)c1ccc(NC(=O)NC[C@H]2C[C@@H]3CC[N@]2C[C@@H]3CN2CCCCC2)cc1` [CBK288766], the viability at 28.5 h, 10 µM stood at 92.3%.

Turning to `CC[C@H]1CN(C(=O)c2cccnc2)CC[C@H]1CC(=O)N1CCC(C(N)=O)CC1` [CBK288772], the viability at 28.5 h, 10 µM came out at 104%.

As for `CC[C@H]1CN(C(=O)c2cccnc2)CC[C@H]1CC(=O)NCc1cccs1` [CBK288773], the viability at 28.5 h, 10 µM worked out at 89.7%. Under `CC[C@H]1CN(C(=O)NC(C)C)CC[C@H]1CC(=O)NCc1ccc2c(c1)OCO2` [CBK288775] stands 97.9%.

Regarding `CC[C@H]1CN(C(=O)Nc2cccc(OC)c2)CC[C@H]1CC(=O)O` [CBK288778], the viability at 28.5 h, 10 µM turned out to be 110%. Take `O=C(O)C[C@@H]1CCN(C(=O)Nc2ccccc2)C[C@@H]1CCN1CCCCC1` [CBK288782]: the viability at 28.5 h, 10 µM is 110%. `CC(=O)NCCN1CC[C@H]2CN(C(=O)COc3ccccc3)CC[C@H]2CC1=O` [CBK288783]: the viability at 28.5 h, 10 µM turned out to be 84.6%. For `CC(=O)NCCN1CC[C@H]2CN(C(=O)c3cc(C)on3)CC[C@H]2CC1=O` [CBK288785] the value was 103%; for `COc1ccc(OC)c(S(=O)(=O)N2CC[C@H]3CC(=O)N(CCN(C)C)CC[C@H]3C2)c1` [CBK288788], 104%; for `C=CCNC(=O)N1CC[C@H]2CC(=O)N(Cc3ccc(OC)cc3)CC[C@H]2C1` [CBK288790], 86.9%. As for `C=CCNC(=O)N1CC[C@H]2CC(=O)N(Cc3cccnc3)CC[C@H]2C1` [CBK288791], the viability at 28.5 h, 10 µM amounted to 113%. In the case of `CCNC(=O)N1CC[C@H]2CC(=O)N(Cc3cccnc3)CC[C@H]2C1` [CBK288792], the viability at 28.5 h, 10 µM was found to be 85.6%. For `O=C1C[C@@H]2CCN(C(=O)NC3CCCCC3)C[C@@H]2CCN1CCN1CCNC1=O` [CBK288796], the viability at 28.5 h, 10 µM worked out at 96.4%. Consider `COc1ccc(NC(=O)N2CC[C@H]3CC(=O)N(CCN4CCNC4=O)CC[C@H]3C2)cc1` [CBK288797], for which the viability at 28.5 h, 10 µM was found to be 86.8%. Under `CC(C)(C)c1cc(C[C@H]2CNCC[C@H]2CC(=O)N2CCN(c3ccc(F)cc3)CC2)no1` [CBK288800] stands 94.8%. Regarding `Cc1nn(CCC#N)c(C)c1[C@@H]1C=C[C@@H](NC(=O)Nc2ccc(Cl)cc2)C1` [CBK288803], the viability at 28.5 h, 10 µM turned out to be 95.8%.

As to `COc1ccc(NC(=O)N[C@@H]2C=C[C@@H](c3c(C)nn(CCC#N)c3C)C2)cc1` [CBK288804], the viability at 28.5 h, 10 µM worked out at 94.2%. For `C=CCNC(=O)N[C@H]1[C@H](O)[C@@H](N2CCC(C(=O)OC)CC2)[C@@H]2OC[C@H]1O2` [CBK288807] the value was 82.1%; for `CC(=O)N1CCN([C@H]2[C@@H]3OC[C@@H](O3)[C@@H](NCC3CCCCC3)[C@@H]2O)CC1` [CBK288809], 90.6%. On to `O[C@H]1[C@H](NCc2ccco2)[C@H]2CO[C@H](O2)[C@@H]1N1CCC(Cc2ccccc2)CC1` [CBK288815], for which the viability at 28.5 h, 10 µM turned out to be 99.1%. Under `C=CCNC(=O)N[C@H]1[C@H](O)[C@@H](N(CC)CC)[C@@H]2OC[C@H]1O2` [CBK288817] stands 91.1%; under `C=CCNC(=O)N[C@H]1[C@H](O)[C@@H](N2CCN(c3ccccc3OC)CC2)[C@@H]2OC[C@H]1O2` [CBK288818], 89.7%. Regarding `O[C@H]1[C@H](NCC2CC2)[C@H]2CO[C@H](O2)[C@@H]1N1CCOCC1` [CBK288819], the viability at 28.5 h, 10 µM was 86.4%. Take `COc1cccc(NC(=O)N[C@H]2[C@H](O)[C@@H](N3CCOCC3)[C@@H]3OC[C@H]2O3)c1` [CBK288821]: the viability at 28.5 h, 10 µM amounted to 109%. Take `O[C@H]1[C@H](NCc2ccco2)[C@H]2CO[C@H](O2)[C@@H]1N1CCCCC1` [CBK288825]: the viability at 28.5 h, 10 µM was 106%. For `Cn1c(CN2C[C@H](O)C[C@H]2c2nc(-c3ccccc3)no2)nc2ccccc21` [CBK288834], the viability at 28.5 h, 10 µM stood at 78.7%. Consider `O[C@@H]1C[C@@H](c2nc(-c3ccncc3)no2)N(Cc2ccc(F)cc2)C1` [CBK288838], for which the viability at 28.5 h, 10 µM stood at 94.3%.

Take `O=[N+]([O-])c1ccccc1CN1C[C@H](O)C[C@H]1c1nc(-c2ccncc2)no1` [CBK288839]: the viability at 28.5 h, 10 µM was determined as 91.2%. In the case of `O[C@@H]1C[C@@H](c2nc(-c3cccnc3)no2)N(Cc2cccs2)C1` [CBK288840], the viability at 28.5 h, 10 µM amounted to 111%.

With `N#Cc1cccc(CN2C[C@H](O)C[C@H]2c2nc(Cc3ccccc3)no2)c1` [CBK288842], the viability at 28.5 h, 10 µM turned out to be 87.5%. As for `COc1ccc(-c2noc([C@@H]3C[C@@H](O)CN3Cc3cccc(C#N)c3)n2)cc1` [CBK288843], the viability at 28.5 h, 10 µM was determined as 92.4%. As for `CC(=O)N1CCC(N2C[C@H](O)C[C@H]2c2nc(C3CC3)no2)CC1` [CBK288845], the viability at 28.5 h, 10 µM is 93.6%. For `O=[N+]([O-])c1cccc(-c2noc([C@@H]3C[C@@H](O)CN3C3CCOCC3)n2)c1` [CBK288847] the value was 101%; for `O[C@@H]1C[C@@H](c2nc(-c3ccc(F)cc3)no2)N(Cc2ncc[nH]2)C1` [CBK288849], 121%.

Consider `Cc1ccc(-c2noc([C@@H]3C[C@H](NC(=O)CCC(=O)O)CN3C)n2)cc1` [CBK288852], for which the viability at 28.5 h, 10 µM worked out at 93.8%. As to `CN1C[C@@H](NC(=O)COc2ccccc2)C[C@H]1c1nc(-c2ccncc2)no1` [CBK288855], the viability at 28.5 h, 10 µM was determined as 90.4%. For `CN1C[C@@H](NC(=O)Nc2ccccc2)C[C@H]1c1nc(-c2cccnc2)no1` [CBK288858], the viability at 28.5 h, 10 µM was found to be 104%.

Regarding `CN1C[C@@H](NS(C)(=O)=O)C[C@H]1c1nc(-c2ccc3ccccc3c2)no1` [CBK288859], the viability at 28.5 h, 10 µM came out at 106%. Consider `COc1ccc(-c2noc([C@@H]3C[C@H](NC(=O)c4ccc(F)cc4)CN3C)n2)cc1` [CBK288861], for which the viability at 28.5 h, 10 µM was determined as 118%. Under `COc1ccc(NC(=O)N[C@H]2C[C@@H](c3nc(-c4ccc(OC)cc4)no3)N(C)C2)cc1` [CBK288862] stands 102%. For the compound `COc1ccc(-c2noc([C@@H]3C[C@H](NS(=O)(=O)Cc4ccccc4)CN3C)n2)cc1` [CBK288863], the viability at 28.5 h, 10 µM was determined as 93.2%. `CC(C)c1noc([C@@H]2C[C@H](NS(=O)(=O)c3ccc(F)cc3)CN2C)n1` [CBK288864]: the viability at 28.5 h, 10 µM is 114%.

As for `CN1C[C@@H](NC(=O)c2ccc(C#N)cc2)C[C@H]1c1nc(-c2ccc(F)cc2)no1` [CBK288865], the viability at 28.5 h, 10 µM is 92.1%. On to `O=C(NC[C@H]1C[C@@H]2CC[N@]1C[C@@H]2CN1CCN(c2ccccn2)CC1)c1ccco1` [CBK288867], for which the viability at 28.5 h, 10 µM is 107%. Take `O=C(O)c1ccc(CN2C[C@H](O)C[C@H]2c2nc(-c3ccccn3)no2)cc1` [CBK288869]: the viability at 28.5 h, 10 µM turned out to be 90%. For `O=C(O)c1ccc(CN2C[C@H](O)C[C@H]2c2nc(-c3ccc(F)cc3)no2)cc1` [CBK288870] the value was 112%; for `CN1C[C@@H](NS(=O)(=O)c2ccc(C#N)cc2)C[C@H]1c1nc(-c2ccncc2)no1` [CBK288871], 86.9%; for `Cc1noc([C@@H]2C[C@H](NC(=O)c3ccc(C#N)cc3)CN2C)n1` [CBK288872], 97.6%. For `Cc1noc([C@@H]2C[C@H](NC(=O)Nc3cccc(C#N)c3)CN2C)n1` [CBK288873] the value was 104%; for `Cc1noc([C@@H]2C[C@H](NS(=O)(=O)c3ccc(C#N)cc3)CN2C)n1` [CBK288874], 113%.

On to `CN1C[C@@H](NS(C)(=O)=O)C[C@H]1c1nc(-c2ccc3c(c2)OCO3)no1` [CBK288875], for which the viability at 28.5 h, 10 µM stood at 114%. Turning to `CN1C[C@@H](NC(=O)Nc2ccccc2)C[C@H]1c1nc(-c2ccccc2)no1` [CBK288877], the viability at 28.5 h, 10 µM is 124%. For the compound `CN1C[C@@H](NC(=O)NCc2ccccc2)C[C@H]1c1nc(-c2cncnc2)no1` [CBK288878], the viability at 28.5 h, 10 µM worked out at 108%. For the compound `CC(=O)N1CCN(c2cc(-c3noc([C@@H]4CCCN4C4CCOCC4)n3)ccn2)CC1` [CBK288879], the viability at 28.5 h, 10 µM came out at 88%. Take `COCCOc1ccc(-c2noc([C@@H]3CCCN3)n2)cn1` [CBK288883]: the viability at 28.5 h, 10 µM amounted to 97.4%. Turning to `CN1CCC[C@H]1c1nc(-c2ccnc(NS(C)(=O)=O)c2)no1` [CBK288884], the viability at 28.5 h, 10 µM is 86.8%.
